Reference: patent publication US10899776B2, “Antiviral and antibacteria agents based on quaternary ammonium compound complexed with boric acid and its derivatives” (B-Organic Films Corp, priority 2015, dated 2021)
Like-named read-outs stand apart in the source and are kept apart here.

Test system: L. vannamei shrimp gene expression
Protocol: RNA is extracted using TRIzol® and the Qiagen RNeasy® Mini Kit (Qiagen, Germantown, Md., USA). Shrimp samples immersed in TRIzol® are placed in the FastPrep®-24 (MP Biomedicals LLC, Solon, Ohio, USA) and homogenized during 4° C. for 40 s pulses at 6 m/s. A volume of 200 μL of chloroform is added to a 1.5 mL RNase free tube containing the homogenate material and inverted 15 times. Samples are incubated at room temperature for 3 min before centrifuged at 8000 g for 15 min at 4° C. using the Eppendorf centrifuge. The supernatant is carefully transferred into a new 1.5 mL RNase free tube and the extraction continued following the manufacturer's protocol.
The quality and quantity of RNA are determined by the NanoDrop™ 1000 spectrophotometer (Thermo Fisher Scientific, Waltham, Mass., USA) and Bio-Rad™ (Bio-Rad, Hercules, Calif., USA) using denatured gel electrophoresis with formaldehyde and buffer MOPS 1× (Sambrook, J. 1989. in: «Molecular cloning—a laboratory manual, 2nd ed». J. Sambrook, E. F. Fritsch, T. Maniatis Eds. Cold Spring Harbor, N.Y.: Cold Spring Harbor Laboratory Press).
Microarrays are designed based on publically available gene sequences and ESTs determined from cDNA libraries representing multiple tissues of male and female L. vannamei shrimp, and/or of various physiological conditions.
In total, a length of oligonucleotides about of 61440-mer is included in this study: 39592 shrimp ESTs; 1216 Quality control spots; 112 positive control Alexa-555 dye; 80 positive control Alexa 647 dye; 20320 Unigenes; 16 astringent positive control alexa-555: 16 astringent positive control Alexa-647 dye and 88 negative control empty are submitted to the MYcroarray (University of Michigan, Chemical Engineering Department) for printing on aminosaline glass slides. The exposure and reference sample RNAs are adjusted to final volume 19 μL with oligo d(T) (2 μg/μL) and random primers. (1 μg/μL) in water molecular biology grade. The samples are incubated at 70° C. for 10 min and are then chilled in ice. The samples are mixed finally with 5× Reaction Buffer Superscript II kit (Invitrogen, Life technologies, Carlsbad Calif., USA): 25 mM MgCl2; aminoallyl-dNTP with dUTP (3:1); 0.1 M DTT and 200 U/μL Superscript II Reverse Transcriptase. The mix is incubated at 25° C. for 10 min and then at 42° C. for 2 hours. RNA hydrolysis is made with 5 μL of NaOH 1 N and 1 μL of EDTA 0.5 M. The mixture is incubated at 65° C. for 10 min, and then added 25 μL of HEPES 1 M at pH 7.5. […] The aminoallyl-DNA (aa-DNA) is purified using QIAquick™ (Qiagen, Duesseldorf, Germany). A volume of 7 μL of sodium acetate 3 M and 400 μL binding buffer supplied by the Kit are added. The mixture is allowed to stand 5 min according to the manufacturer's instructions for purification. The eluted aa-DNA is concentrated in a Vacufuge™ until dry and is resuspended in 4.5 μL of sodium bicarbonate 100 mM (pH 9.0). The reaction is conducted in darkness at room temperature overnight. The aa-DNA labeled is purified using QIAquick™ (Qiagen, Duesseldorf, Germany) and eluted with 50 uL water. The aa-DNA labeled is quantified in a Nanodrop™ 1000 spectrophotometer (Thermo Fisher Scientific, Waltham, Mass., USA).
After completely drying in a Vacufuge concentrator, the aa-DNA labeled is resuspended in hybridation mixture containing: ˜0.1 optical density units of aa-DNA labeled from each sample; SSC (5×) buffer; 0.1% SDS; 1× buffer TE. The hybridation mixture is desaturated at 94° C. for 5 min and finally at 65° C. for 30 s. The mixture is placed in the microarray slide previously placed in a chamber for microarray hybridization and covered using a RNase-free plastic coverslip (Hybrislip, Schleicher & Schuell, HS40—40×22 mm; HS22—22×22 mm via Thomas Scientific). The hybridation chamber is incubated at 42° C. overnight.
The slide is placed in a 50 mL conical tube for the first wash and a volume of 50 mL of SSC (1×) buffer and of SDS 0.05% are added for 1 min.

[1] = 2-Down regulated genes, feed 5 mg/g
[2] = 2-Up regulated genes, feed 5 mg/g
[3] = 2-fold Down-regulated genes (treated) versus all genes
[4] = 2-fold Up-regulated genes (treated) versus all genes
[5] = diets supplemented with the complex
[6] = feed 5 mg/g, 14 days, of 262 2-fold Down-regulated genes
[7] = feed 5 mg/g, 14 days, of 583 2-fold Up-regulated genes
[8] = treated vs control shrimp, 57,193 spots available to analysis

C[N+](C)(C)CCOB1OB2OB(O1)OB1OB(O2)O1.[Cl-] [choline/pentaborate complex]
# Enzymes, Aminoacyl-tRNA biosynthesis [1]: 3
# Enzymes, Ascorbate and aldarate metabolism [1]: 2
# Enzymes, Glycolysis/Gluconeogenesis [1]: 3
# Enzymes, Oxidative phosphorylation [1]: 4
# Enzymes, Pentose and glucuronate interconversions [1]: 2
# Enzymes, Pentose phosphate pathway [1]: 5
# Enzymes, Phenylalanine metabolism [1]: 1
# Enzymes, Phenylpropanoid biosynthesis [1]: 1
# Enzymes, Purine metabolism [1]: 3
# Enzymes, Starch and sucrose metabolism [1]: 2
# Genes, Aminoacyl-tRNA biosynthesis [1]: 3
# Genes, Ascorbate and aldarate metabolism [1]: 3
# Genes, Glycolysis/Gluconeogenesis [1]: 3
# Genes, Oxidative phosphorylation [1]: 6
# Genes, Pentose and glucuronate interconversions [1]: 3
# Genes, Pentose phosphate pathway [1]: 5
# Genes, Phenylalanine metabolism [1]: 3
# Genes, Phenylpropanoid biosynthesis [1]: 3
# Genes, Purine metabolism [1]: 4
# Genes, Starch and sucrose metabolism [1]: 5
# Enzymes, Amino sugar and nucleotide Sugar metabolism [2]: 7
# Enzymes, Cytochrome P450 [2]: 3
# Enzymes, Glutathione metabolism [2]: 5
# Enzymes, Glycolysis [2]: 8
# Enzymes, Oxidative phosphorylation [2]: 6
# Enzymes, Pentose phosphate pathway [2]: 4
# Enzymes, Purine metabolism [2]: 7
# Enzymes, Pyruvate metabolism [2]: 6
# Enzymes, Valine, leucine and isoleucine degradation [2]: 6
# Genes, Amino sugar and nucleotide Sugar metabolism [2]: 8
# Genes, Cytochrome P450 [2]: 6
# Genes, Glutathione metabolism [2]: 7
# Genes, Glycolysis [2]: 8
# Genes, Oxidative phosphorylation [2]: 18
# Genes, Pentose phosphate pathway [2]: 5
# Genes, Purine metabolism [2]: 14
# Genes, Pyruvate metabolism [2]: 6
# Genes, Valine, leucine and isoleucine degradation [2]: 6
Fisher's exact test GO term Extracellular region part [3]: 5.69%
Fisher's exact test GO term Gas transport [3]: 2.03%
Fisher's exact test GO term Oxygen transporter activity [3]: 2.03%
Fisher's exact test GO term Photoreceptor cell differentiation [3]: 2.43%
Fisher's exact test GO term Regulation of protein metabolic process [3]: 10.56%
Fisher's exact test GO term Starch metabolic process [3]: 2.03%
Fisher's exact test GO term Sucrose metabolic process [3]: 2.03%
Fisher's exact test GO term Toll-like Receptor for signaling pathway [3]: 1.62%
Fisher's exact test GO term Translation factor activity, nucleic acid binding [3]: 4.47%
Fisher's exact test GO term Transporter activity [3]: 10.56%
Fisher's exact test GO term extracellular region [3]: 9.75%
Fisher's exact test GO term extracellular space [3]: 4.87%
Fisher's exact test GO term Actin Cytoskeleton [4]: 4.62%
Fisher's exact test GO term Calcium Ion Binding [4]: 4.25%
Fisher's exact test GO term Cytoskeletal Protein Binding [4]: 5.55%
Fisher's exact test GO term Hydrogen Transport [4]: 4.81%
Fisher's exact test GO term Ion Transport [4]: 8.15%
Fisher's exact test GO term Monosaccharide Metabolic Process [4]: 4.10%
Fisher's exact test GO term Monovalent Inorganic Cation Transport [4]: 5.92%
Fisher's exact test GO term Positive Regulation of Biosynthetic Process [4]: 3.70%
Fisher's exact test GO term Positive Regulation of Cellular Biosynthetic Process [4]: 3.70%
Fisher's exact test GO term Proton Transport [4]: 4.81%
number of immune related genes that are over-expressed (2-fold Up-regulated, GO term 0006955, feed 5 mg/g, 14 days): at least 33
number of modulated genes associated to Biogenesis [5]: 59
number of modulated genes associated to Biological regulation [5]: 73
number of modulated genes associated to Cellular process [5]: 159
number of modulated genes associated to Developmental process [5]: 40
number of modulated genes associated to Localization [5]: 66
number of modulated genes associated to Metabolic process [5]: 166
number of modulated genes associated to Response to stimuli [5]: 43
number of modulated genes associated to Signaling [5]: 26
number of 2-fold Up-regulated genes (feed 5 mg/g, 14 days): 583
number of genes with a 2-fold Down-regulated expression (feed 5 mg/g, 14 days): 262
Down-regulated genes in biological process Biological Regulation [6]: 9%
Down-regulated genes in biological process Cellular Component Organization or Biogenesis [6]: 7%
Down-regulated genes in biological process Cellular Process [6]: 20%
Down-regulated genes in biological process Developmental Process [6]: 5%
Down-regulated genes in biological process Localization [6]: 8%
Down-regulated genes in biological process Metabolic Process [6]: 20%
Down-regulated genes in biological process Multicellular Process [6]: 6%
Down-regulated genes in biological process Response to Stimulus [6]: 5%
Down-regulated genes in biological process Signaling [6]: 3%
Down-regulated genes in biological process Single-organism Process [6]: 17%
Down-regulated genes with molecular function Binding [6]: 44%
Down-regulated genes with molecular function Catalytic Activity [6]: 40%
Down-regulated genes with molecular function Enzyme Regulator Activity [6]: 3%
Down-regulated genes with molecular function Structural Molecule Activity [6]: 4%
Down-regulated genes with molecular function Transporter Activity [6]: 9%
Up-regulated genes in biological process Biological Regulation [7]: 9%
Up-regulated genes in biological process Cellular Component Organization or Biogenesis [7]: 7%
Up-regulated genes in biological process Cellular Processes [7]: 20%
Up-regulated genes in biological process Developmental Process [7]: 6%
Up-regulated genes in biological process Localization [7]: 7%
Up-regulated genes in biological process Metabolic Process [7]: 18%
Up-regulated genes in biological process Multicellular Organismal Process [7]: 6%
Up-regulated genes in biological process Response to Stimulus [7]: 6%
Up-regulated genes in biological process Signaling [7]: 4%
Up-regulated genes in biological process Single-organism Process [7]: 17%
Up-regulated genes with molecular function Binding Activity [7]: 44%
Up-regulated genes with molecular function Catalytic Activity [7]: 43%
Up-regulated genes with molecular function Structural Molecule Activity [7]: 6%
Up-regulated genes with molecular function Transporter Activity [7]: 7%
Number of spots, Expression Levels (Score) 1 to 1.5 [8]: 3,662
Number of spots, Expression Levels (Score) 1.5 to 2 [8]: 1,984
Number of spots, Expression Levels (Score) <−2 [8]: 1,434
Number of spots, Expression Levels (Score) >2 [8]: 1,650
Number of spots, Expression Levels (Score) −1.5 to −1 [8]: 3,221
Number of spots, Expression Levels (Score) −1.5 to −2 [8]: 1,259
Number of spots, No regulated genes (−1 to 1) [8]: 43,950
